Experimental data from US5854004A, “Process for screening substances capable of modulating a receptor-dependent cellular signal transmission path” (Boehringer Ingleheim GmbH, priority 1991, dated 1998).

Columns and labels:
COS-7 cells = assay: Induction of TRE-sensor-DNA (luciferase) in transiently transfected pretest cells, COS-7
Experimental: (§1) Approximately 1×10^7 cells per transfection were detached from the surface of the culture dish using trypsin and centrifuged for 5 minutes at 1200 rpm at ambient temperature (Heraeus Minifuge), washed once with 5 ml of serum-free medium, centrifuged for 5 minutes at 1200 rpm and suspended in 1 ml of serum-free medium. Then the cells were mixed with 250 μg/ml DEAE-dextrane, 5 μg plasmid DNA and 50 μg/ml chloroquin, incubated for 30 minutes at 37° C., washed once with medium containing no FCS and incubated overnight at 37° C. with 10 ml of fresh serum-containing medium. Then the medium was changed and after 4 hours the cells were induced, either with 10 ng TPA/ml medium or with 20 μM forskolin. […] The cells were lysed by the addition of 100 μl lysing buffer (1% Triton X-100, 25 mM glycylglycine pH 7.8, 15 mM MgSO4, 4 mM EDTA and 1 mM […]), the lysate was centrifuged for 5 minutes and the supernatant was transferred into a fresh test tube. […] The measuring time for light emission was 10 seconds.
(§2) The cell lines A549, HeLa and COS-7 were transiently transfected as described above by the addition of plasmid pBHluc1.3 and induced by the addition of TPA. Cells which were only transfected but not induced were used as a negative control.
(§3) The cell lines A549, HeLa and COS-7 were transiently transfected by the addition of plasmid pADneo(3TRE)BGluci and induced by the addition of TPA or forskolin. Once again, cells which were only transfected but not induced were used as a negative control.
(§4) The cell lines COS-7 and A549 were transiently transfected by the addition of plasmid pADneo(3×TREd16)BGluci, pADneo(3×TREd21)BGluci, pADneo(3×TREd24)BGluci, pADneo(3×TREd34)BGluci, pADneo(6×TREd16)BGluci, pADneo(6×TREd21)BGluci, pADneo(6×TREd24)BGluci or pADneo(6×TREd34)BGluci and induced by the addition of TPA or forskolin.

[1] = biological target: human muscarinic M3-receptor (Homo sapiens, UniProt P20309); type: cell-based
[2] = biological target: T1, human dopamine D1-receptor (Homo sapiens, UniProt P21728); assay: Induction of pBHluc1.3 (TRE) via dopamine-D1-receptor in co-transfected COS-7 cells; type: cell-based; conditions: 10 ng/ml TPA or 1 μM apomorphine, 18 h
HeLa cells = assay: Induction of TRE-sensor-DNA (luciferase) in transiently transfected pretest cells, HeLa; conditions: 18 h
Experimental: as §1, §2, §3

A549 cells [3] = conditions: Voraberger et al., 1991; cited from earlier work
A549 cells [4] = assay: Induction of TRE-sensor-DNA (luciferase) in transiently transfected pretest cells, A549
Experimental: as §1, §2, §3, §4

[5] = biological target: T2, human neurokinin 2-receptor (Homo sapiens, UniProt P21452); assay: Luciferase activity in NK2-test cell line A20/NK2-122; conditions: A20/NK2-122, depending on the dose
T2 sequence (P21452 1-398): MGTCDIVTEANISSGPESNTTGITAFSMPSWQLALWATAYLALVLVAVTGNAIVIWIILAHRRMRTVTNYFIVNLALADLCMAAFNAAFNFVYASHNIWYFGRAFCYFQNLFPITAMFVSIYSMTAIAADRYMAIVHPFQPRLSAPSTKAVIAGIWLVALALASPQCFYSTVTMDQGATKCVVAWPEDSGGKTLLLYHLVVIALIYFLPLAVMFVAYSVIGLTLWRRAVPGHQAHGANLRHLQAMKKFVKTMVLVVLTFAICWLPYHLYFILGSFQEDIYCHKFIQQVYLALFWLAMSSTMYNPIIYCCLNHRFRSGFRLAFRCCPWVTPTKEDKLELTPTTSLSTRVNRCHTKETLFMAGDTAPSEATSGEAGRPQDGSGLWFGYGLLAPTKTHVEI
Experimental: (§5) 15-20 days after transfection, individual cell clones were transferred into 96-well microtitre plates and further cultivated. […] Approximately 40,000 cells in each clone were sown, in a procedure repeated 6 times, in 200 μl per well of a light-impervious 96-well microtitre plate coated with tissue culture (Microlite™, Dynatech Laboratories) and incubated overnight at 37° C. Three mixtures were treated with 10 ng TPA/ml and incubated for a further 8 hours. Then the medium was removed and the cells were washed twice with PBS.
This Example illustrates the preparation of a test cell line for the human neurokinin 2 (NK2)-receptor which is coupled to the phospholipase C-signal transduction pathway. This test cell line makes it possible, by measurement of the luciferase activity, to identify substances which modulate the intracellular IP3 /DAG concentrations, depending on the receptor.
(§6) The pretest cell line A20 was transfected, as described under a), by electroporation with the plasmid pAHyg-NK2, which had previously been linearised with BglII. From the day after transfection onwards, the cells were grown in selection medium, as used for the cell line A20 and additionally enriched with 150 μg/ml hygromycin B (Sigma). Individual clones were tested for inducibility of the luciferase activity as described under a).

cell line A20 = assay: Luciferase induction in stable TRE-pretest cell line A20 (A549, pBHluc1.3)
Experimental: In order to produce a stable (pre-)test cell line for substances which influence the expression of the luciferase gene by direct or receptor-mediated modulation of the IP3 /DAC-signal transduction pathway, A549 cells were simultaneously transfected with the plasmid pBHluc1.3 and the selection plasmid pRSVneo by electroporation as follows: after removal of the medium the cells were detached from the surface by means of a trypsin/PBS solution, suspended in medium and sedimented for 5 minutes at 250×g. […] 0.8 ml of cell suspension were combined with 20 μg of pBHluc1.3 and 2 μg of pRSVneo. Both plasmids had previously been linearised with BamHI.
as §5, §6

cell line CHO C6-13 = assay: Luciferase expression in CRE-pretest cell line CHO C6-13; conditions: 3 hours treatment, FIG. 33
Experimental: The transfection by electroporation was carried out as follows: after removal of the medium the cells were detached from the surface by means of a trypsin/PBS solution, suspended in medium and pelleted for 5 minutes at 250×g. The cells were washed in HBS (10 mM HEPES pH 7.4, 150 mM NaCl) and pelleted by centrifuging. The cells were suspended in HBS in a density of 1×10^7 cells/ml. 0.8 ml of cell suspension were mixed with 20 μg of DNA of the plasmid pADneo2-C6-BGL linearised with ScaI and transferred into an electroporation dish. […] After the electroporation the cells were diluted in the medium mentioned above, 20,000 cells per 90 mm culture dish was sown and incubated overnight at 37° C.
Two batches of each were treated with 20 μM forskolin and incubated for a further 5 hours at 37° C. Then the medium was removed from all the cells and the cells were washed with PBS.
Cells of the cell line CHO C6-13 were treated for 3 hours with various substances which alter the intracellular concentration of cAMP or IP3 /DAG or simulate a change in concentration, and also treated with receptor-specific agonists which influence the above-mentioned signal transduction mechanisms.

[6] = biological target: T1, human dopamine D1-receptor; assay: Induction of pADneo2-C6-BGL (CRE) via dopamine-D1-receptor in co-transfected COS-7 cells; conditions: COS-7; 20 μM forskolin or 1 μM apomorphine, 18 h
[7] = biological target: T1, human dopamine D1-receptor; assay: Luciferase activity in dopamine D1-receptor test cell line CHO 13D1-38
Experimental: The cell line CHO C6-13 characterised above was transfected, as described under a), by electroporation with plasmid pAD-CMV2:D1, which had previously been linearised with FspI.
For the use of test cell lines in an automatic screening system with a high throughput rate it is advantageous to use microtitre plates having 96 wells per plate. For this purpose, 60,000 cells (CHO C6-13 or CHO 13D1-38) were sown in 200 μl medium per well in light-impermeable microtitre plates coated with tissue culture
(Microlite™, Dynatech Labroatories) and incubated overnight at 37° C. Then various chemicals were added to the cells and they were incubated for a certain length of time (usually 3 hours). After removal of the medium the cells were washed with PBS, lysed in 1% Triton X-100 and the luciferase activity was measured in a 96-well luminometer (ML-1000, Dynatech) (FIG. 36).
In order to simulate a screening process in which the test substances are preferably supplied in a uniform solvent, a final concentration of 1% DMSO was used in this experiment.

human 5HT2-receptor [8] = biological target: T3, human 5HT2-receptor (Homo sapiens, UniProt P28223); assay: Induction of pBHluc1.3 (TRE) via 5-HT2-receptor in co-transfected COS-7 cells; type: cell-based
Experimental: (§7) Induction was carried out with i) 20 μM forskolin (Sigma P8139), ii) 10 μα-methylserotonin-maleate (RBI M-110), and iii) 10 μα-methylserotonin-maleate and 10 μM ketanserin-tartrate (RBI S-006). […] It follows, from the above results, that, depending on 5-HT2 -receptors, only regulation elements which respond to IP3 /DAG (TRE), but not regulation elements which respond to cAMP (CRE) are selectively activated.

human 5HT2-receptor [9] = biological target: T3, human 5HT2-receptor; assay: Induction of pADneo2-C6-BGL (CRE) via 5-HT2-receptor in co-transfected COS-7 cells; type: cell-based; conditions: 20 μM forskolin or 10 μ α-methylserotonin-maleate
Experimental: as §7

human 5HT2-receptor [10] = biological target: T3, human 5HT2-receptor; assay: cell-based; conditions: read-out: induction of luciferase activity, clone A20/5HT2-11
Description: The human 5HT2-receptor is another example of a receptor coupled to the phospholipase C-signal transduction pathway. The TRE-cell line A20 is therefore also suitable in this case as a starting cell line for establishing a test cell line in order to discover substances which modulate the activity of the 5HT2-receptor.
The plasmid pAHyg-5HT2, linearised with BglII, was for this purpose transfected into the cell line A20 by electroporation as described under a) and grown in selection medium.
For this purpose the cells were simultaneously treated with a constant amount of serotonin (1 μg) and increasing amounts of antagonist.

[11] = COS-7, 10 ng TPA/ml or 20 μM forskolin, 18 h
[12] = 10 ng TPA/ml or 20 μM forskolin

For `CCCCCCCCCCCCCC(=O)O[C@@H]1[C@@H](C)[C@@]2(O)[C@@H](C=C(CO)C[C@]3(O)C(=O)C(C)=C[C@@H]23)[C@@H]2C(C)(C)[C@]12OC(C)=O` [TPA, phorbol-12-myristat-13-acetate], the “induction of pADneo(6×TREdx)BGluci depending on spacing of TRE-elements” value (COS-7 cells; COS-7, 10 ng TPA/ml) was “higher when the spacing of the TRE-elements is smaller”, the “induction of pADneo(nTREdx)BGluci, 6 versus 3 TRE-elements” value (COS-7 cells; COS-7, 10 ng TPA/ml) was “the induction with TPA for the constructions with 6 TRE-elements is greater than for the constructions with 3 TRE-elements” and the “induction of pADneo(3TRE)BGluci” value (COS-7 cells; [11]) was “can be induced in the tested cells by TPA”. For the same compound, the “induction of pBHluc1.3 by TPA or forskolin” value (COS-7 cells; [11]) was “could also be induced by TPA”, the fold induction at 0.01 µg/mL (COS-7 cells; Primates, COS-7, 18 h, read-out: induction of pBHluc1.3 (luciferase)) was over 10 and the “induction of luciferase expression” value [1] was “induced both by TPA and by carbachol”. For the same compound, the “induction of luciferase expression (TRE)” value [2] was “induced by TPA”, the “induction of pADneo(3TRE)BGluci” value (HeLa cells; [12]) was “can be induced in the tested cells by TPA” and the “induction of pBHluc1.3 by TPA or forskolin” value (HeLa cells; [12]) was “could also be induced by TPA”. For the same compound, the fold induction at 0.01 µg/mL (HeLa cells; Homo sapiens, read-out: induction of pBHluc1.3 (luciferase)) was over 10, the “induction of 1.3 kb ICAM-1 fragment / pBHluc1.3” value (A549 cells [3]) was “can be induced by TPA” and the “induction of pADneo(6×TREdx)BGluci depending on spacing of TRE-elements” value (A549 cells [4]; A549, 10 ng TPA/ml) was “higher when the spacing of the TRE-elements is smaller”. For the same compound, the “induction of pADneo(nTREdx)BGluci, 6 versus 3 TRE-elements” value (A549 cells [4]; A549, 10 ng TPA/ml) was “the induction with TPA for the constructions with 6 TRE-elements is greater than for the constructions with 3 TRE-elements”, the “induction of pADneo(3TRE)BGluci” value (A549 cells [4]; A549, 10 ng TPA/ml or 20 μM forskolin, 18 h) was “can be induced in the tested cells by TPA” and the fold induction at 0.01 µg/mL (A549 cells [4]; Homo sapiens, A549, 18 h, read-out: induction of pBHluc1.3 (luciferase)) was over 10. For the same compound, the “maximum induction of luciferase activity by TPA” value [5] was at most 18 times, the “maximum induction of luciferase activity by TPA” value (cell line A20; A20, depending on the dose) was at most 18 times and the fold induction at 0.01 µg/mL (cell line A20; Homo sapiens, A549, 8 h, read-out: inducibility of luciferase activity, clone A20) was 15 to 20. The “change in luciferase expression/activity” value (cell line CHO C6-13) was “did not bring about any significant change in the luciferase activity”.

For `CN1CCc2cccc3c2[C@H]1Cc1ccc(O)c(O)c1-3` [apomorphine], the “induction of luciferase expression (CRE)” value [6] was “induced by forskolin and by apomorphine”, the “increase in luciferase activity, clone CHO 13D1-38” value ([7]; 10 μM apomorphine, 4 hours) was “highest increase in luciferase activity” and the “concentration which brings about maximum induction of the luciferase reporter gene” value ([7]; apomorphine final concentration) was 1 µM. The “time after stimulation at which increased luciferase activity was measured” value ([7]; apomorphine, FIG. 37A) was “one”, the “time to maximum luciferase activation” value ([7]; apomorphine, FIG. 37A) was 2.5 h and the “time up to which luciferase activation remained constant” value ([7]; apomorphine, FIG. 37A) was 4 h. For the same compound, the “dependency of ED50 values on duration of receptor stimulation” value ([7]; apomorphine, FIG. 37B) was “no significant dependency”, the “induction of luciferase expression (TRE)” value [2] was “not by apomorphine” and the “change in luciferase expression/activity” value (cell line CHO C6-13) was “did not bring about any significant change in the luciferase activity”.

With `O=C(c1ccc(F)cc1)C1CCN(CCn2c(=O)[nH]c3ccccc3c2=O)CC1` [ketanserin-tartrate] the “prevention of agonist-mediated induction” value (human 5HT2-receptor [8]; 10 μM α-methylserotonin-maleate and 10 μM ketanserin-tartrate) was “prevented”.

With `CC(N)Cc1c[nH]c2ccc(O)cc12` (stereo not drawn) [α-methylserotonin-maleate] the “induction of luciferase expression (CRE)” value (human 5HT2-receptor [9]) was “not by the 5-HT2-receptor-agonist α-methylserotonin-maleate”, the fold induction at 10 µM (human 5HT2-receptor [10]) was 4 to 5 and the “induction of luciferase expression (TRE)” value (human 5HT2-receptor [8]; COS-7, 10 ng/ml TPA or 10 μg α-methylserotonin-maleate, 18 h) was “induced both by TPA and by α-methylserotonin-maleate”.
